Laboratory results reported in paper PMC12123366, “Effect of urea and squaramide IMPDH inhibitors on C. parvum: in vitro trial design impacts the assessment of drug efficacy” (International Journal for Parasitology: Drugs and Drug …, 2025).
Where two headings read alike, the source gives them in different places.

Experiments:
[1] = CytoTox 96 Non-Radioactive Cytotoxicity Assay; format: cell-based, Human; conditions: human; HCT-8 cells, 10 µM
Description: (§1) HCT-8 cell lines (Human ileocecal adenocarcinoma) were purchased from The European Collection of Authenticated Cell Cultures (ECACC) under catalogue number No 90032006) and maintained with regular subculturing in a growth medium consisting in a RPMI 1640 medium supplemented with 1 mM sodium pyruvate, 2 mM l-glutamine, 10 % (vol/vol) of heat-inactivated fetal calf serum, 100 U/mL of penicillin and 100 μg/mL of streptomycin. Cells were grown in an incubator at 37 °C with 5 % (vol/vol) CO2 until monolayers reached 80–90 % confluency. Cells were cultivated in 96-well format plate for molecular analysis and in Lab-Tek™ Chamber Slides for microscopic analysis. 50,000 cells were seeded and incubated during 24 h (until confluency) before infection.
(§2) The compounds (2 mg/mL in DMSO) were diluted to 500 μM and serially diluted in maintenance medium. The cytotoxicity of the compounds was assessed using the CytoTox 96® Non-Radioactive Cytotoxicity Assay (Promega, G1790) in accordance with the manufacturer's protocol.
(§3) An initial screening experiment was conducted on the full library to evaluate the cytotoxicity effects on HCT-8 cells. Nitrophenylurea 12 was identified as being cytotoxic so was not progressed further (See Supporting Information). In total, 21 candidates were assessed for their ability to inhibit C. parvum replication at a concentration of 10 μM. Each compound was added at the start of the infection of HCT-8 cells (T0) and remained in the culture for 48 h post infection (hpi). Parasitic quantification was then performed using a molecular method (qPCR). Of the 21 compounds tested, nine were effective inhibitors, reducing parasite proliferation by 80 % or more (Fig. 6). A clear trend emerged with all of the benzyl-substituted ureas 6–10 displaying poor inhibitory activity, regardless of the attached heteroaryl substituent. […] Two exceptions to this were imidazole-containing analogues 18 and 19. […] Among the squaramide series, the results were highly dependent on the nature of the substituent, ranging from high (e.g. ketone 29, furan 32), medium (e.g. 3-pyrazole 30) to low (e.g. 4-pyrazole 31) anti-cryptosporidial activity.

[2] = tested on: C. parvum; assay: Inhibition of C. parvum replication in infected HCT-8 cells, parasite quantification by qPCR; format: cell-based, Cryptosporidium parvum (Iowa strain) in human HCT-8 cells; conditions: for inhibition at 10 µM / IC50: Cryptosporidium parvum, HCT-8; for inhibition at 10 µM: added at start of infection (T0), 48 hpi, mean ± SD (n = 3 wells), read-out: inhibition rate of C. parvum replication; for inhibition at 10 µM / anti-cryptosporidial activity (in words): 10 μM; for anti-cryptosporidial activity (in words): added at T0, 48 hpi
Description: as §1
(§4) C. parvum oocysts of “Iowa” strain was purchased from Waterborne Inc. and stored in PBS at 4 °C. A ratio of one oocyst per cell was used to infect HCT-8 cell. Oocysts suspension was incubated with 10 % of a solution (vol/vol) containing 0.5 % sodium hypochlorite for 10 min at 4 °C. After a washing step by centrifugation at 1800g for 15 min at 4 °C, oocysts were incubated in acidified water (pH 2.4) containing 0.025 % (wt/vol) of trypsin, at 37 °C for 20 min, to trigger excystation (infectivity assay developed by [Keegan et al., 2003]). After a third centrifugation step at 1800 g for 10 min, oocysts were suspended in a maintenance medium. The maintenance medium consisted of RPMI 1640 medium with 2 mM l-glutamine, 5 mM glucose, 0.5 μM folic acid, 7 μM 4-amino-benzoic acid, 0.1 μM calcium pantothenate, 50 nM ascorbic acid, 2 % (vol/vol) heat inactivated fetal calf serum and 100 U/mL of streptomycin/penicillin. Before oocyst inoculation, the growth medium was switched with maintenance medium. Triggered oocysts were finally added on monolayers and incubated during 48 h at 37 °C in a 5 % (vol/vol) CO2 atmosphere.
as §2
The COWP gene (GenBank no. AF248743) was amplified by qPCR following the previously described protocol ([Guy et al., 2003]), and the parasitic concentration was determined using the standard range of C. parvum oocyst concentrations. Briefly, serial dilutions from a pure C. parvum oocyst suspension were made starting from a stock solution of 5 × 10^7 oocysts (4 × 10^5 – 2 × 10^5 – 1 × 10^5 – […]–2.5 × 10^3–1.25 × 10^3 oocysts) and the standard curve for quantifying parasites was created to obtain a correlation between Cq values and the Log of concentration.
At the end of the experiment, supernatants from the C. parvum-infected cell cultures were collected. The cell layers were then washed (1x PBS), detached using trypsin (0.25 %), and centrifuged (10,000×g, 10 min). The resulting cell pellet was re-suspended in 150–200 μL of sterile 1x PBS and stored at −20 °C for later DNA extraction. DNA extraction of C. parvum was performed using the Purelink™ Microbiome Purification Kit (Invitrogen™) following the manufacturer's protocol “Transport Media and Microbial Culture Samples” ([Invitrogen, 2015]).
FRePCR reactions were formulated to a volume of 25 μL and comprised of 1.25 μL of primers (10 μM), 0.05 μL probe (100 μM), 12.5 μL Master Mix 2X, LightCycler 480 Probes Master (ref. 04707494001, Roche), 4.95 μL H2O nuclease-free and 5 μL of DNA template. Quantitative PCR was run on a CFX96 real time PCR system (BioRad) with an initial step of activation (10 min 95 °C) following by 40 cycles with cycling conditions as follows: 95 °C for 10 s, 60 °C for 1 min. BioRad CFX manager software was used to analyse the data. Samples were considered negative if Cq ≥ 40.
A common way of defining a 50 % response is to use a mathematical model like the 4-parameter logistic model (4 PL) ([Sebaugh, 2011]). […]

[3] = tested on: C. parvum; assay: Quantification of C. parvum development in HCT-8 cells by immunofluorescence microscopy; format: cell-based, Cryptosporidium parvum (Iowa strain) in human HCT-8 cells; conditions: for effect on distribution of parasite area: 7.5 μM or 15 μM, added at 30 hpi until 48 hpi; for reduction in parasite quantification: 7.5 μM, added at 30 hpi, until 48 hpi, fluorescence microscopy
Description: as §1, §4
After aspiration of the supernatant from the Nunc™ Lab-Tek™ Chamber slide wells, cells were rinsed with PBS 1X. A fixation step was then performed using methanol during 8 min at 4 °C. Cryptosporidium developmental forms were labelled with a polyclonal IgG antibodies reaction kit tagged with Cy3 (Sporo-Glo™, Waterborne Inc.) and oocysts were labelled with FL-Crypt-a-Glo™, a fluorescein-labelled mouse monoclonal antibody made to oocyst outer wall antigenic sites (epitopes) of C. parvum. Antibodies were 1/20th diluted and incubated on cells for 1 h at room temperature. DNA was labelled with Hoechst for 5 min at room temperature. Slides were then coverslipped with a no fading mounting medium (Waterborne Inc.) and observed with a Leica DMi8 microscope. Each dilution was performed in triplicate and, for each well, ten images were taken at 400× magnification. Parasite quantification was carried out automatically using the StarDist neural network, which was specifically trained to detect and quantify C. parvum parasites.
To confirm our initial findings, we employed an alternative method using immunofluorescence microscopy to quantify C. parvum development in the presence of inhibitors (Fig. S1). […] The results corroborated our initial screening data, confirming the high efficacy of all tested chloronitrophenyl urea analogues, except for imidazole derivatives 18 and 19.
To test this hypothesis, increasing concentrations of squaramide 32 (i.e. 0, 2, 4 and 8 μM) were applied at different infection times: at 0 hpi (hours post infection), to assess the impact on parasite invasion; at 4 hpi, to examine the effect on the early stages of intracellular development; and at 30 hpi, to evaluate the influence on late stage intracellular development. The microscopic images in Fig. 7 illustrate the effect of 32 when applied at the onset of infection and at 30 hpi. Using fluorescent antibodies, the intracellular development of C. parvum is highlighted by green fluorescence, which allows for quantification of the number of parasites per image.

[4] = tested on: HCT-8 cells; assay: CytoTox 96 Non-Radioactive Cytotoxicity Assay; format: cell-based, Human; conditions: 10 µM
Description: as §1, §2, §3

[5] = compounds at 0, 3, 6 and 9 μM added at t0 and left until 48 hpi, qPCR, read-out: IC50

IC50 [2, 5]	Structure (SMILES)	viability at 10 µM [1]	inhibition at 10 µM ([2]; qPCR)	further results
5.44 µM	CCOC(=O)n1ccc(-c2cccc(C(C)(C)NC(=O)Nc3ccc(Cl)c([N+](=O)[O-])c3)c2)n1 [Compound 13]	97.2%	87.5 ± 6.4%	–
6.19 µM	CC(C)(NC(=O)Nc1ccc(Cl)c([N+](=O)[O-])c1)c1cccc(-c2cc[nH]n2)c1 [Compound 14]	97.6%	85.1 ± 3.8%	–
5.98 µM	CCOC(=O)n1cc(-c2cccc(C(C)(C)NC(=O)Nc3ccc(Cl)c([N+](=O)[O-])c3)c2)cn1 [Compound 15]	97.5%	71.7 ± 1.5%	–
5.32 µM	CC(C)(NC(=O)Nc1ccc(Cl)c([N+](=O)[O-])c1)c1cccc(-c2cn[nH]c2)c1 [Compound 16]	96.4%	64.3 ± 3.9%	–
4.69 µM	CC(C)(NC(=O)Nc1ccc(Cl)c([N+](=O)[O-])c1)c1cccc(-c2nccn2Cc2ccccc2)c1 [Compound 17]	97.3%	88.2 ± 1.1%	–
4.51 µM	CC(C)(NC(=O)Nc1ccc(Cl)c([N+](=O)[O-])c1)c1cccc(-c2nccs2)c1 [Compound 20]	98.4%	85.7 ± 2.2%	–
6.19 µM	CC(C)(NC(=O)Nc1ccc(Cl)c([N+](=O)[O-])c1)c1cccc(-c2ccco2)c1 [Compound 21]	98.3%	64 ± 1%	–
3.77 µM	CC(C)(NC(=O)Nc1ccc(Cl)c([N+](=O)[O-])c1)c1cccc(-c2cccs2)c1 [Compound 22]	98.5%	86.6 ± 2.6%	–
3.23 µM	CCOc1ncccc1-c1cccc(C(C)(C)NC(=O)Nc2ccc(Cl)c([N+](=O)[O-])c2)c1 [Compound 23]	94.1%	88 ± 3.5%	effect on distribution of parasite area [3]: successfully inhibits larger parasites; reduction in parasite quantification [3]: 32%
3.64 µM	CC(C)(NC(=O)Nc1ccc(Cl)c([N+](=O)[O-])c1)c1cccc(-c2cccnc2F)c1 [Compound 24]	96.8%	83.4 ± 1.5%	effect on distribution of parasite area [3]: dose-dependent effect; reduction in parasite quantification [3]: 10.5%
3.59 µM	CC(=O)c1cccc(C(C)(C)Nc2c(Nc3ccc(Cl)c([N+](=O)[O-])c3)c(=O)c2=O)c1 [Compound 29, 3-((2-(3-acetylphenyl)propan-2-yl)amino)-4-((4-chloro-3-nitrophenyl)amino)cyclobut-3-ene-1,2-dione]	97.2%	87.7 ± 1.7%	anti-cryptosporidial activity (in words) ([2]; qPCR): high

The remaining lines, values behind:

Structure (SMILES)	IC50 [2, 5]	viability at 10 µM [1]	inhibition at 10 µM ([2]; qPCR)	further results
CC(C)(NC(=O)NCc1ccccc1)c1cccc(-c2cc[nH]n2)c1 [Compound 6]	–	97%	–	–
CC(C)(NC(=O)NCc1ccccc1)c1cccc(-c2cn[nH]c2)c1 [Compound 7]	–	96.7%	–	–
CC(C)(NC(=O)NCc1ccccc1)c1cccc(-c2ccco2)c1 [Compound 8]	–	95.9%	–	–
CC(C)(NC(=O)NCc1ccccc1)c1cccc(-c2cccs2)c1 [Compound 9]	–	95.4%	–	–
CC(C)(NC(=O)NCc1ccccc1)c1cccc(-c2ccccc2)c1 [Compound 10]	–	97.4%	–	–
CC(C)(NC(=O)Nc1ccc(Cl)c([N+](=O)[O-])c1)c1cccc(-c2cn(C(c3ccccc3)(c3ccccc3)c3ccccc3)cn2)c1 [Compound 18]	–	97.3%	≤ 50%	–
CC(C)(NC(=O)Nc1ccc(Cl)c([N+](=O)[O-])c1)c1cccc(-c2c[nH]cn2)c1 [Compound 19]	–	97.4%	≤ 50%	–
CC(C)(Nc1c(Nc2ccc(Cl)c([N+](=O)[O-])c2)c(=O)c1=O)c1cccc(-c2cc[nH]n2)c1 [Compound 30, 3-((2-(3-(1H-Pyrazol-3-yl)phenyl)propan-2-yl)amino)-4-((4-chloro-3-nitrophenyl)amino)cyclobut-3-ene-1,2-dione]	–	98.2%	–	anti-cryptosporidial activity (in words) ([2]; qPCR): medium
CC(C)(Nc1c(Nc2ccc(Cl)c([N+](=O)[O-])c2)c(=O)c1=O)c1cccc(-c2cn[nH]c2)c1 [Compound 31, (3-((2-(3-(1H-Pyrazol-4-yl)phenyl)propan-2-yl)amino)-2-((4-chloro-3-nitrophenyl)amino)-4-oxocyclobut-2-en-1-ylidene)oxonium]	–	–	–	Viability [4]: 96.97%; anti-cryptosporidial activity (in words) ([2]; qPCR): low
NC[C@@H]1O[C@H](O[C@H]2[C@@H](O)[C@H](O[C@@H]3[C@@H](O)[C@H](N)C[C@H](N)[C@H]3O[C@H]3O[C@H](CO)[C@@H](O)[C@H](O)[C@H]3N)O[C@@H]2CO)[C@H](N)[C@@H](O)[C@@H]1O [Paromomycin, reference compound]	–	–	–	IC50 ([2]; previous experimentation based on qPCR, standard Cryptosporidium inhibitor in in vitro assays, read-out: mean IC50): 511 µM
